This note sets out measurements from US20230098332A1, “HETEROCYCLIC DERIVATIVES AS TRMP8 ANTAGONISTS” (Givaudan SA, priority 2020, published 2023).

Where a name gives a salt, the structure may show the parent alone.

The target of the assay is T1, hTRPM8 (Homo sapiens, UniProt Q7Z2W7).
T1 construct: expressed in transfected cells
T1 sequence (Q7Z2W7 whole entry): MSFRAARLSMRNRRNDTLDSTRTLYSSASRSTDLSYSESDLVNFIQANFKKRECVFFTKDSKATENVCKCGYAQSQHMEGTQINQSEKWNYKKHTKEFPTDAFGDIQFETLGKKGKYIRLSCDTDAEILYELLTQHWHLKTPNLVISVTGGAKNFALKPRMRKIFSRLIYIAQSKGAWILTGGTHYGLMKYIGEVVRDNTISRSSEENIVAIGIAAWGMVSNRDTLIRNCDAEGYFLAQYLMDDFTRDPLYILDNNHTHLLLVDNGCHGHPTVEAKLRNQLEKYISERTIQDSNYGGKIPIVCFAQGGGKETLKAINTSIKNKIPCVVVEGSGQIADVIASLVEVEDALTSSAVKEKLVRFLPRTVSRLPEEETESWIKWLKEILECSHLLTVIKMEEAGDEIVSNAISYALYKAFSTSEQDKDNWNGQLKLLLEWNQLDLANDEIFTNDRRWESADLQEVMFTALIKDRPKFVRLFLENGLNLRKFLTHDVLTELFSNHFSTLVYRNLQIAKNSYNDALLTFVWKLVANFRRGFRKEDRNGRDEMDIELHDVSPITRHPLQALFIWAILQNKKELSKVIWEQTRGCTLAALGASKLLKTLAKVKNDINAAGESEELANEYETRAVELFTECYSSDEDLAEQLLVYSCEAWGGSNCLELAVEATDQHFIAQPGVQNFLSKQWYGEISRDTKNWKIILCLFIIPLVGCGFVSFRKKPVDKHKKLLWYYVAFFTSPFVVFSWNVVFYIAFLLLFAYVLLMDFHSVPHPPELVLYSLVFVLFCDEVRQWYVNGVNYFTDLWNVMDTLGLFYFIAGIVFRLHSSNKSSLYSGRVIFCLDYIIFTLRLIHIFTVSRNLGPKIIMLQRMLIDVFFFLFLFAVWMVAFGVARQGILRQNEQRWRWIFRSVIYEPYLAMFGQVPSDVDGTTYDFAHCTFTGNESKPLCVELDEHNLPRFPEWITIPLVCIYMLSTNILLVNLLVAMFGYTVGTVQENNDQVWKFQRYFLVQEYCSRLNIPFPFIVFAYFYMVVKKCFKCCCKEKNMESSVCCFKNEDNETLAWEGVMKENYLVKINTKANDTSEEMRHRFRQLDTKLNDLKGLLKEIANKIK
Nature of the assay: Assay on TRPM8 modulators: calcium imaging (Fluo-4, Flexstation) in HEK293 cell line stably expressing hTRPM8. The class given is cell-based. The conditions noted are these: TRPM8 agonist activity, calcium influx, HEK293 stably expressing hTRPM8, sigmoidal dose-response fit. On the procedure:
A HEK293 cell line stably expressing hTRPM8 was generated according to Klein et al., (Chem. Senses 36: 649-658, 2011) and receptor activation was monitored by calcium imaging in a Flexstation. For Ca-imaging assays of TRPM8 channel activation, cells were seeded on day 0 at a density of 12000 cells per well in Dulbecco's modified Eagle medium (DMEM) containing 9% foetal bovine serum in black, clear bottom 96-well plates that had been coated with 0.001% polyethyleneimine (molecular weight=60 000, Acros Organics). On day 2, agonists were evaluated via calcium imaging using Fluo-4. Briefly, growth medium was discarded, and the cells were incubated in the dark for 1 h at 37° C. in 50 μL loading buffer consisting of 2.7 μM Fluo-4 AM (Invitrogen) and […] probenecid (Sigma-Aldrich) in DMEM (without serum). After incubation, the plates were washed five times with 100 μL of assay buffer (in mM: 130 NaCl, 5 KCl, 10 HEPES, 2 CaCl2, and 10 glucose, pH7.4.) and further incubated in the dark at room temperature for 30 min. The cells were then washed five times with 100 μL assay buffer and then calcium influx to serial dilutions of inventive compounds were measured in a Flexstation 3 (Molecular Devices). Receptor activation was initiated following addition of 20 μl of a 10-fold concentrated ligand stock solution, which is also prepared in assay buffer. Fluorescence was continuously monitored for 15 seconds prior to ligand addition and for 105 seconds after ligand addition, for a total of 120 seconds. Maximal receptor activation in relation to solvent control and relative to 31.6 μM menthol is determined. Data from serial dilutions were processed with a KNIME workflow to fit a sigmoidal dose-response curve and to extrapolate EC50 values.
Take `Cc1cc(C)c(OCCN2CCOCC2)c(C(C)c2ccccc2F)c1` (stereo not drawn) [compound 144, 4-(2-(2-(1-(2-fluorophenyl)ethyl)-4,6-dimethylphenoxy)ethyl)morpholine]: the EC50 lay within 0.3 to 1 µM.

Turning to `Cc1cc(C)c(OCCN2CCOCC2)c(Cc2ccccc2CC#N)c1` [compound 108, 2-(2-(3,5-dimethyl-2-(2-morpholinoethoxy)benzyl)phenyl)acetonitrile], the EC50 fell in the range of 0.05 to 0.3 µM. On to `Cc1cc(C)c(OCCN2CCOCC2)c(Cc2c(Cl)cccc2C#N)c1` [compound 142, 3-chloro-2-(3,5-dimethyl-2-(2-morpholinoethoxy)benzyl)benzonitrile], for which the EC50 was in the range of 0.3 to 1 µM. Take `Cc1cc(C)c(OCCN2CCN(C)CC2)c(Cc2ccncc2)c1` [compound 65, 1-(2-(2,4-dimethyl-6-(pyridin-4-ylmethyl)phenoxy)ethyl)-4-methylpiperazine]: the EC50 was in the range of 1 to 35 µM.

Take `CCc1cc(C)cc(Cc2ccccc2F)c1OCCN1CCOCC1` [compound 161, 4-(2-(2-ethyl-6-(2-fluorobenzyl)-4-methylphenoxy)ethyl)morpholine]: the EC50 was 0.05 to 0.3 µM. Regarding `Cc1ccc(OCCN2CCNCC2)c(Cc2ccccc2)c1` [compound 88, 1-(2-(2-benzyl-4-methylphenoxy)ethyl)piperazine], the EC50 was in the range of 1 to 35 µM. `Cc1ccc(CC(O)CN2CCOCC2)c(Oc2ccccc2C#N)c1` (stereo not drawn) [compound 107, 2-(2-(2-hydroxy-3-morpholinopropyl)-5-methylphenoxy)benzonitrile]: the EC50 lay in the range of 0.05 to 0.3 µM. As for `CN1CCN(CC2CCc3cccc(Cc4ccccc4)c3O2)CC1` (stereo not drawn) [compound 50, 1-((8-benzylchroman-2-yl)methyl)-4-methylpiperazine], the EC50 fell in the range of 1 to 35 µM. With `Cc1ccc(OCCN2CCN(C)CC2)c(Cc2ccccc2Cl)c1` [compound 55, 1-(2-(2-(2-chlorobenzyl)-4-methylphenoxy)ethyl)-4-methylpiperazine], the EC50 was in the range of 0.05 to 0.3 µM. Turning to `Cc1cc(C)c(OCCN2CCN(C)CC2)c(Cc2cccc(C#N)c2)c1` [compound 139, 3-(3,5-dimethyl-2-(2-(4-methylpiperazin-1-yl)ethoxy)benzyl)benzonitrile dihydrochloride], the EC50 lay in the range of 1 to 35 µM. Regarding `Cc1cc(C)c(OCC(C)N2CCOCC2)c(Cc2ccccc2C#N)c1` (stereo not drawn) [compound 48, 2-(3,5-dimethyl-2-(2-morpholinopropoxy)benzyl)benzonitrile], the EC50 lay in the range of 0.05 to 0.3 µM. With `Cc1cc(C)c(OCCN2CCN(C)CC2)cc1Cc1ccccc1C#N` [compound 109, 2-(2,4-dimethyl-5-(2-(4-methylpiperazin-1-yl)ethoxy)benzyl)benzonitrile], the EC50 lay within 1 to 35 µM. `Cc1ccc(OCCN2CCC(O)CC2)c(Cc2ccccc2)c1` [compound 89, 1-(2-(2-benzyl-4-methylphenoxy)ethyl)piperidin-4-ol]: the EC50 lay in the range of 1 to 35 µM. In the case of `Cc1cccc(Cc2ccccc2)c1OCCN1CCN(C)CC1` [compound 92, 1-(2-(2-benzyl-6-methylphenoxy)ethyl)-4-methylpiperazine], the EC50 is 1 to 35 µM. Next, `Cc1ccc(OCCN2CCN(C)CC2)c(C(=O)c2ccccc2)c1` [compound 42, (5-methyl-2-(2-(4-methylpiperazin-1-yl)ethoxy)phenyl)(phenyl)methanone]: 1 to 35 µM; `Cc1ccc(NCCN2CCOCC2)c(Cc2c(F)cccc2F)c1` [compound 110, 2-(2,6-difluorobenzyl)-4-methyl-N-(2-morpholinoethyl)aniline]: 0.3 to 1 µM. With `Cc1cc(C)c(OCCN2CCN(C)CC2)c(Cc2cccc(Br)c2)c1` [compound 58, 1-(2-(2-(3-bromobenzyl)-4,6-dimethylphenoxy)ethyl)-4-methylpiperazine], the EC50 lay in the range of 1 to 35 µM.

For `Cc1ccc(OCCN2CCN(C)CC2)c(C(C)c2ccccc2)c1` (stereo not drawn) [compound 101, 1-methyl-4-(2-(4-methyl-2-(1-phenylethyl)phenoxy)ethyl)piperazine], the EC50 fell in the range of 0.3 to 1 µM. As to `Cc1cc(C)c(OCCN2CCOCC2)c(Cc2ccccc2Cl)c1` [compound 152, 4-(2-(2-(2-chlorobenzyl)-4,6-dimethylphenoxy)ethyl)morpholine], the EC50 lay in the range of 0.05 to 0.3 µM. Turning to `Cc1cc(C)c(OCCN2CCOCC2)c(Cc2cc(F)ccc2F)c1` [compound 147, 4-(2-(2-(2,5-difluorobenzyl)-4,6-dimethylphenoxy)ethyl)morpholine], the EC50 was in the range of 0.05 to 0.3 µM. For `Cc1cc(C)c(OCCN2CCN(C)CC2)c(Cc2ccccn2)c1` [compound 63, 1-(2-(2,4-dimethyl-6-(pyridin-2-ylmethyl)phenoxy)ethyl)-4-methylpiperazine] the value was 1 to 35 µM. Take `Cc1ccc(OCCN2CCN(C)CC2)c(Cc2ccccc2C#N)c1` [compound 129, 2-(5-methyl-2-(2-(4-methylpiperazin-1-yl)ethoxy)benzyl)benzonitrile]: the EC50 was 0.05 to 0.3 µM. Turning to `Cc1ccc(/C=C/CN2CCN(C)CC2)c(Cc2ccccc2)c1` [compound 44, (E)-1-(3-(2-benzyl-4-methylphenyl)allyl)-4-methylpiperazine], the concentration for a half-maximal effect (EC50) was in the range of 1 to 35 µM.

Consider `Cc1ccc(OCCCN2CCN(C)CC2)c(Cc2ccccc2)c1` [compound 99, 1-(3-(2-benzyl-4-methylphenoxy)propyl)-4-methylpiperazine hydrochloride], for which the EC50 fell in the range of 1 to 35 µM. Next, `Cc1cc(C)c(OCCN2CCN(C)CC2)c(Cc2cccnc2)c1` [compound 64, 1-(2-(2,4-dimethyl-6-(pyridin-3-ylmethyl)phenoxy)ethyl)-4-methylpiperazine]: 1 to 35 µM. Consider `Cc1cc(C)c(OCCN2CCOCC2)c(Cc2c(Br)cccc2C#N)c1` [compound 141, 3-bromo-2-(3,5-dimethyl-2-(2-morpholinoethoxy)benzyl)benzonitrile], for which the EC50 fell in the range of 0.3 to 1 µM. Consider `CN1CCN(CCOc2ccccc2Cc2ccccc2)CC1` [compound 93, 1-(2-(2-benzylphenoxy)ethyl)-4-methylpiperazine hydrochloride], for which the EC50 lay within 1 to 35 µM. For `Cc1ccc(OCCN2CCN(C)CC2)c(Cc2ccc(Cl)s2)c1` [compound 53, 1-(2-(2-((5-chlorothiophen-2-yl)methyl)-4-methylphenoxy)ethyl)-4-methylpiperazine], the EC50 lay within 1 to 35 µM.

For the compound `Cc1cc(C)c(OCCN2CCOCC2)c(Cc2ccc(F)cc2F)c1` [compound 146, 4-(2-(2-(2,4-difluorobenzyl)-4,6-dimethylphenoxy)ethyl)morpholine], the EC50 lay within 0.3 to 1 µM.

For `Cc1ccc(OCCN2CCOCC2)c(Cc2c(F)cccc2F)c1` [compound 151, 4-(2-(2-(2,6-difluorobenzyl)-4-methylphenoxy)ethyl)morpholine], the EC50 was 0.05 to 0.3 µM. As for `Cc1cc(C)c(OC(C)CO)c(Cc2ccccc2C#N)c1` (stereo not drawn) [compound 106, 2-(2-((1-hydroxypropan-2-yl)oxy)-3,5-dimethylbenzyl)benzonitrile], the EC50 is 0.3 to 1 µM. Regarding `Cc1cc(C)c(OCCN2CCN(C)CC2)c(Cc2ccccc2F)c1` [compound 56, 1-(2-(2-(2-fluorobenzyl)-4,6-dimethylphenoxy)ethyl)-4-methylpiperazine], the EC50 fell in the range of 0.05 to 0.3 µM. As for `CN1CCN(CCOc2ccc(Cl)cc2Cc2ccccc2)CC1` [compound 73, 1-(2-(2-benzyl-4-chlorophenoxy)ethyl)-4-methylpiperazine hydrochloride], the EC50 lay in the range of 0.3 to 1 µM.
